Assay results taken from US20230346773A1, “USE OF PCSK9 INHIBITOR IN PREPARATION OF PRODUCT FOR TREATING MULTIPLE DISEASES” (priority 2020, published 2023).

How the values were obtained:
Assay type in all cases: in vivo, Wistar rats
TIMP-1 = assay: Bleomycin pulmonary fibrosis rat model: TIMP-1 expression in lung tissue; details: after 14 days of treatment, tail vein 3 mg/kg·d, n = 6, x ± s
Method: (§1) Rats were numbered according to their body weight and divided into groups according to their body weight by random arrangement table method, and divided into small molecule compound treatment group (tail vein injection of PCSK9 small molecule compound inhibitor, 3 mg/kg·d), siPcsk9 treatment group (Tail vein injection of PCSK9 small interfering RNA, 3 mg/kg·d), monoclonal antibody treatment group (tail vein injection of PCSK9 monoclonal antibody, 3 mg/kg·d), peptide treatment group (tail vein injection of PCSK9 polypeptide inhibitor, 3 mg/kg·d), model group (injection of physiological saline into tail vein, 3 mg/kg·d), and blank control group (injection of physiological saline into tail vein, 3 mg/kg·d), 12 animals in each group, half male and half female. Rats in each group were anesthetized by intraperitoneal injection of 2% sodium pentobarbital ([…]), fixed on the operating table, and injected into the neck trachea. The control group was injected with normal saline (1.25 ml/kg), and the model group and each treatment group were injected with 5 U/mL bleomycin solution (5 mg/kg). […]
(§2) Peripheral venous blood was collected from the tail vein of animals in each group after modeling and 14 days after treatment, and the levels of superoxide dismutase (SOD) and catalase (CAT) in peripheral blood were detected. […]

MMP-2 = assay: Bleomycin pulmonary fibrosis rat model: MMP-2 expression in lung tissue; details: after 14 days of treatment, tail vein 3 mg/kg·d, n = 6, x ± s
Method: as §1, §2

MMP-9 = assay: Bleomycin pulmonary fibrosis rat model: MMP-9 expression in lung tissue; details: after 14 days of treatment, tail vein 3 mg/kg·d, n = 6, x ± s
Method: as §1, §2

VEGF protein = assay: Bleomycin pulmonary fibrosis rat model: VEGF protein in lung tissue by ELISA; details: n = 6, x ± s
Method: as §1, §2

VEGF-mRNA = assay: Bleomycin pulmonary fibrosis rat model: VEGF-mRNA in lung tissue by reverse transcription PCR; details: n = 6, x ± s
Method: as §1, §2

[1] = tested on: superoxide dismutase (SOD); assay: Bleomycin pulmonary fibrosis rat model: SOD in peripheral blood; details: n = 6, x ± s
Method: as §1, §2

catalase (CAT) = assay: Bleomycin pulmonary fibrosis rat model: CAT in peripheral blood; details: n = 6, x ± s
Method: as §1, §2

[2] = after modeling (before the 14 days of treatment)
[3] = tail vein 3 mg/kg·d once a day for 14 days

COc1ccc(CCC(=O)N(c2nccc3ccccc23)[C@@H]2CCCNC2)cc1 [Compound group 1, R-IMPP]
TIMP-1 (TIMP-1): 8.56 ± 0.58 | MMP-2 (MMP-2): 2.67 ± 0.32 | MMP-9 (MMP-9): 3.43 ± 0.34 | VEGF protein, 14 days after modeling (VEGF protein; [2]): 38.47 ± 3.23 pg/mL | VEGF protein, 14 days after treatment (VEGF protein; [3]): 57.61 ± 3.86 pg/mL | VEGF-mRNA, 14 days after modeling (VEGF-mRNA; [2]): 0.53 ± 0.16 | VEGF-mRNA, 14 days after treatment (VEGF-mRNA; [3]): 0.85 ± 0.16 | SOD, 14 days after modeling [1, 2]: 171.45 ± 13.92 U/ml | SOD, 14 days after treatment [1, 3]: 218.56 ± 14.36 U/ml | CAT, 14 days after modeling (catalase (CAT); [2]): 9.43 ± 2.31 kU/g | CAT, 14 days after treatment (catalase (CAT); [3]): 14.45 ± 1.51 kU/g
